What was measured:
[1] = Inhibitory activity against Vascular endothelial growth factor receptor
[2] = as above; remark: listed apart in the source
[3] = molecular target: Vascular endothelial growth factor receptor 1 (Homo sapiens, UniProt P17948); assay: ChEBML_213951
Excerpt: Inhibitory activity against Vascular endothelial growth factor receptor

Chain of Vascular endothelial growth factor receptor 1 (P17948 whole entry): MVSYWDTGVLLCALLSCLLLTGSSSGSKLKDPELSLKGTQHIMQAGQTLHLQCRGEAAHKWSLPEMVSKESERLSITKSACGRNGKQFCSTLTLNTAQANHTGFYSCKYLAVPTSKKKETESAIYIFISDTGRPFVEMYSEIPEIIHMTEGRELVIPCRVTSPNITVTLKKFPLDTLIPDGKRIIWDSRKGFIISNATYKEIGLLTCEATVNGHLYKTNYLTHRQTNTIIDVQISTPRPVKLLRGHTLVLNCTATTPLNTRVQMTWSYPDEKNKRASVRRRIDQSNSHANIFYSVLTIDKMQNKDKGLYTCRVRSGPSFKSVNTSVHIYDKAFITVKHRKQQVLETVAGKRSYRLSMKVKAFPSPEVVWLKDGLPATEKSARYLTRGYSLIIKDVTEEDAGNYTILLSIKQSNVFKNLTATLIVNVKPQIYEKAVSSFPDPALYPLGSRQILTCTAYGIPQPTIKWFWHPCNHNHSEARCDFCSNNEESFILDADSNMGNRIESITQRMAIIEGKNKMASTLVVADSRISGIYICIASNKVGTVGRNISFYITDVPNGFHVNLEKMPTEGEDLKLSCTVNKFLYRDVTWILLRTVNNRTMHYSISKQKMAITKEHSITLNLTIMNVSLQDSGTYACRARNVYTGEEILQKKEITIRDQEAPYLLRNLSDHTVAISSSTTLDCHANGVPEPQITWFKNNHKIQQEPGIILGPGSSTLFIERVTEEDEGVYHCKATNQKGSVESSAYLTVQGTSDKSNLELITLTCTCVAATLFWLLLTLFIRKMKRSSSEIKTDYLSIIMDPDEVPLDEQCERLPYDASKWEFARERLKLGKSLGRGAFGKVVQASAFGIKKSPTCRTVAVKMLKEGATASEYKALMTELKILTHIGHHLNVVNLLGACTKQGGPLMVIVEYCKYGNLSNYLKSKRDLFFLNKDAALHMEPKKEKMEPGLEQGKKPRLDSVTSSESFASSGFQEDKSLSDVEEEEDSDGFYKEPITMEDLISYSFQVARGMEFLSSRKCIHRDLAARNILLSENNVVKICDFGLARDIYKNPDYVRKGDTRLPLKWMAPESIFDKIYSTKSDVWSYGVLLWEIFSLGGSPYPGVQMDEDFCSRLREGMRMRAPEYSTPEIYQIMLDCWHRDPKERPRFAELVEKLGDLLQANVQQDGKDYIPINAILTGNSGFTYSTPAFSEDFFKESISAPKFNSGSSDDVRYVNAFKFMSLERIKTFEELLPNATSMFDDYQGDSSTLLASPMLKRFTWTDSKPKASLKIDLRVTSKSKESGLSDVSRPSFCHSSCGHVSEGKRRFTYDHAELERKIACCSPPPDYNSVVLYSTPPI

IC50 [1] [µM]	SMILES	also measured
0.005	Cc1cc2cc(Nc3ccnc4cc(-c5ccc(CNCCOCCO)cc5)sc34)ccc2[nH]1 [2-(2-{4-[7-(2-Methyl-1H-indol-5-ylamino)-thieno[3,2-b]pyridin-2-yl]-benzylamino}-ethoxy)-ethanol]	
0.003	Cc1cc2cc(Nc3ccnc4cc(-c5ccc(CN(C)CCO)cc5)sc34)ccc2[nH]1 [2-(Methyl-{4-[7-(2-methyl-1H-indol-5-ylamino)-thieno[3,2-b]pyridin-2-yl]-benzyl}-amino)-ethanol]	
0.004	CN(CCO)Cc1ccc(-c2cc3nccc(Nc4ccc5[nH]ccc5c4)c3s2)cc1 [2-({4-[7-(1H-Indol-5-ylamino)-thieno[3,2-b]pyridin-2-yl]-benzyl}-methyl-amino)-ethanol]	
2.21	O=C(Cc1cc2ncnc(Nc3ccc4[nH]ccc4c3)c2s1)c1ccccc1 [2-[4-(1H-Indol-5-ylamino)-thieno[3,2-d]pyrimidin-6-yl]-1-((E)-phenyl)-ethenol]	
0.025	CC(C)(CO)NCc1ccc(-c2cc3ncnc(Nc4ccc5[nH]ccc5c4)c3s2)cc1 [2-{4-[4-(1H-Indol-5-ylamino)-thieno[3,2-d]pyrimidin-6-yl]-benzylamino}-2-methyl-propan-1-ol]	
0.006	OCCNCc1ccc(-c2cc3nccc(Nc4ccc5[nH]ccc5c4)c3s2)cc1 [2-{4-[7-(1H-Indol-5-ylamino)-thieno[3,2-b]pyridin-2-yl]-benzylamino}-ethanol]	
0.004	Cc1cc2cc(Nc3ccnc4cc(-c5ccc(CNCCO)cc5)sc34)ccc2[nH]1 [2-{4-[7-(2-Methyl-1H-indol-5-ylamino)-thieno[3,2-b]pyridin-2-yl]-benzylamino}-ethanol]	
0.004	OCCCNCc1ccc(-c2cc3nccc(Nc4ccc5[nH]ccc5c4)c3s2)cc1 [3-{4-[7-(1H-Indol-5-ylamino)-thieno[3,2-b]pyridin-2-yl]-benzylamino}-propan-1-ol]	
0.005	Cc1cc2cc(Nc3ccnc4cc(-c5ccc(CNCCCO)cc5)sc34)ccc2[nH]1 [3-{4-[7-(2-Methyl-1H-indol-5-ylamino)-thieno[3,2-b]pyridin-2-yl]-benzylamino}-propan-1-ol]	
2	CCCNC(=O)c1cc2ncnc(Nc3ccc4[nH]ccc4c3)c2s1 [4-(1H-Indol-5-ylamino)-thieno[3,2-d]pyrimidine-6-carboxylic acid propylamide]	
0.25	NC(=O)c1ccc(Nc2ncnc3cc(-c4ccccc4)sc23)cc1 [4-(6-Phenyl-thieno[3,2-d]pyrimidin-4-ylamino)-benzamide]	
> 1.25	Nc1ncnc2cc(-c3ccccc3)sc12 [6-Phenyl-thieno[3,2-d]pyrimidin-4-ylamine]	
> 2.5	Cn1ccc2cc(Nc3ncnc4cc(-c5ccccc5)sc34)ccc21 [(1-Methyl-1H-indol-5-yl)-(6-phenyl-thieno[3,2-d]pyrimidin-4-yl)-amine]	
0.47	c1ccc(-c2cc3ncnc(Nc4ccc5nn[nH]c5c4)c3s2)cc1 [(1H-Benzotriazol-5-yl)-(6-phenyl-thieno[3,2-d]pyrimidin-4-yl)-amine]	
0.62	c1ccc(-c2cc3ncnc(Nc4ccc5[nH]ncc5c4)c3s2)cc1 [(1H-Indazol-5-yl)-(6-phenyl-thieno[3,2-d]pyrimidin-4-yl)-amine]	
0.132	c1csc(-c2cc3nccc(Nc4ccc5[nH]ccc5c4)c3s2)c1 [(1H-Indol-5-yl)-(2-thiophen-2-yl-thieno[3,2-b]pyridin-7-yl)-amine]	
	c1ccc(-c2cc3ncnc(Nc4ccc5[nH]ccc5c4)c3s2)cc1 [(1H-Indol-5-yl)-(6-phenyl-thieno[3,2-d]pyrimidin-4-yl)-amine]	IC50 [2]: 0.048 µM
	c1csc(-c2cc3ncnc(Nc4ccc5[nH]ccc5c4)c3s2)c1 [(1H-Indol-5-yl)-(6-thiophen-2-yl-thieno[3,2-d]pyrimidin-4-yl)-amine]	IC50 [3]: 0.13 µM

IC50 [1] [µM]	SMILES	also measured
0.005	c1cc(Nc2ccc3[nH]ccc3c2)c2sc(-c3ccc(CN4CCOCC4)cc3)cc2n1 [(1H-Indol-5-yl)-[2-(4-morpholin-4-ylmethyl-phenyl)-thieno[3,2-b]pyridin-7-yl]-amine]	
1.41	c1nc(Nc2ccc3[nH]ccc3c2)c2sccc2n1 [(1H-Indol-5-yl)-thieno[3,2-d]pyrimidin-4-yl-amine]	
0.14	Cc1cc2cc(Nc3ncnc4cc(-c5ccccc5)sc34)ccc2[nH]1 [(2-Methyl-1H-indol-5-yl)-(6-phenyl-thieno[3,2-d]pyrimidin-4-yl)-amine]	
0.005	Cc1cc2cc(Nc3ccnc4cc(-c5ccc(CN6CCOCC6)cc5)sc34)ccc2[nH]1 [(2-Methyl-1H-indol-5-yl)-[2-(4-morpholin-4-ylmethyl-phenyl)-thieno[3,2-b]pyridin-7-yl]-amine]	
0.29	Cc1c[nH]c2ccc(Nc3ncnc4cc(-c5ccccc5)sc34)cc12 [(3-Methyl-1H-indol-5-yl)-(6-phenyl-thieno[3,2-d]pyrimidin-4-yl)-amine]	
0.22	Brc1cc2ncnc(Nc3ccc4[nH]ccc4c3)c2s1 [(6-Bromo-thieno[3,2-d]pyrimidin-4-yl)-(1H-indol-5-yl)-amine]	
> 2.5	c1ccc(CNc2ncnc3cc(-c4ccccc4)sc23)cc1 [Benzyl-(6-phenyl-thieno[3,2-d]pyrimidin-4-yl)-amine]	
0.043	c1ccc(NCCN(c2cc3ncnc(Nc4ccc5[nH]ccc5c4)c3s2)n2cccc2)cc1 [N*4*-(1H-Indol-5-yl)-N*6*-(2-phenylamino-ethyl)-N*6*-pyrrol-1-yl-thieno[3,2-d]pyrimidine-4,6-diamine]	
	c1ccc(CCCN(c2cc3ncnc(Nc4ccc5[nH]ccc5c4)c3s2)n2ccnc2)cc1 [N*6*-Imidazol-1-yl-N*4*-(1H-indol-5-yl)-N*6*-(3-phenyl-propyl)-thieno[3,2-d]pyrimidine-4,6-diamine]	IC50 [2]: 0.004 µM
0.5	CN(C)c1ccc(Nc2ncnc3cc(-c4ccccc4)sc23)cc1 [N,N-Dimethyl-N'-(6-phenyl-thieno[3,2-d]pyrimidin-4-yl)-benzene-1,4-diamine]	
0.004	CC(=O)NCCNCc1ccc(-c2cc3ncnc(Nc4ccc5[nH]ccc5c4)c3s2)cc1 [N-(2-{4-[4-(1H-Indol-5-ylamino)-thieno[3,2-d]pyrimidin-6-yl]-benzylamino}-ethyl)-acetamide]	
0.024	CC(=O)NCCNCc1ccc(-c2cc3nccc(Nc4ccc5[nH]ccc5c4)c3s2)cc1 [N-(2-{4-[7-(1H-Indol-5-ylamino)-thieno[3,2-b]pyridin-2-yl]-benzylamino}-ethyl)-acetamide]	
0.19	CNc1ccc(Nc2ncnc3cc(-c4ccccc4)sc23)cc1 [N-Methyl-N'-(6-phenyl-thieno[3,2-d]pyrimidin-4-yl)-benzene-1,4-diamine]	
0.39	c1ccc(Nc2ccc(Nc3ncnc4cc(-c5ccccc5)sc34)cc2)cc1 [N-Phenyl-N'-(6-phenyl-thieno[3,2-d]pyrimidin-4-yl)-benzene-1,4-diamine]	
0.77	O=C(c1ccccc1)c1cc2ncnc(Nc3ccc4[nH]ccc4c3)c2s1 [[4-(1H-Indol-5-ylamino)-thieno[3,2-d]pyrimidin-6-yl]-phenyl-methanone]	
0.018	NCc1ccc(-c2cc3ncnc(Nc4ccc5[nH]ccc5c4)c3s2)cc1 [[6-(4-Aminomethyl-phenyl)-thieno[3,2-d]pyrimidin-4-yl]-(1H-indol-5-yl)-amine]	
0.056	OCc1ccc(-c2cc3ncnc(Nc4ccc5[nH]ccc5c4)c3s2)cc1 [{4-[4-(1H-Indol-5-ylamino)-thieno[3,2-d]pyrimidin-6-yl]-phenyl}-methanol]	
